Assay results: patent US8546381B2, “Bridged heterocyclic compounds and methods of use” (Medivation Technologies, Inc., priority 2008, dated 2013)

Columns and labels:
[1] = target: T1, human recombinant adrenergic α2B receptor (Homo sapiens, UniProt P18089); assay: Adrenergic α2B radioligand binding ([3H]Rauwolscine); settings: for inhibition at 1 µM: read-out: Adrenergic α2B, inhibition of ligand binding (1 μM)
T1 construct: expressed in transfected cells; host or cells: CHO-K1 cells
T1 sequence (P18089 1-450): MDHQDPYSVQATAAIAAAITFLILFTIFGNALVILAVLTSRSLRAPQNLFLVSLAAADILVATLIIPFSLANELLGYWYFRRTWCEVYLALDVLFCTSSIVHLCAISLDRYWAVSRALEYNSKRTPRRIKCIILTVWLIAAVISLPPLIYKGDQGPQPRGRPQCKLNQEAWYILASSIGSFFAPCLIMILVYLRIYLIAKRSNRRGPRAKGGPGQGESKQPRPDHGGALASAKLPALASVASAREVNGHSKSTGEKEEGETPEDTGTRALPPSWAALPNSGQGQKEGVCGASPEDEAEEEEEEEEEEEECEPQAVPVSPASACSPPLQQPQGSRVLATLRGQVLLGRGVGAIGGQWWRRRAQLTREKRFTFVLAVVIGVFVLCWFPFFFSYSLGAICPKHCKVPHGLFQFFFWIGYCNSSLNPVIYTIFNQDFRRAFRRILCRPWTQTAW
Procedure: To evaluate in radioligand binding assays the activity of compounds of the invention, human recombinant adrenergic α2B receptor expressed in Chinese hamster ovary (CHO-K1) cells (Uhlen S et al. Eur J. Pharmacol. 343(1):93, 1998) in a modified Tris-HCl buffer (50 mM Tris-HCl, pH 7.4, 12.5 mM MgCl2, 1 mM EDTA, 0.2% BSA) was used. Compounds of the invention were incubated with 2.5 nM [^3H]Rauwolscine for 60 minutes at 25° C. Non-specific binding was estimated in the presence of 10 μM Prozosin. Receptor proteins were filtered and washed, the filters were then counted to determine [^3H]Rauwolscine specifically bound. Compounds were screened at 1 μM or lower, using 1% DMSO as vehicle. Biochemical assay results are presented as the percent inhibition of specific binding in Table 3.

[2] = target: T2, human recombinant serotonin (5-Hydroxytryptamine) 5-HT6 receptor (Homo sapiens, UniProt P50406); assay: Serotonin 5-HT6 radioligand binding ([3H]LSD); settings: for inhibition at 1 µM: read-out: Serotonin 5-HT6, inhibition of ligand binding (1 μM)
T2 construct: expressed in transfected cells; host or cells: human HeLa cells
T2 sequence (P50406 whole entry): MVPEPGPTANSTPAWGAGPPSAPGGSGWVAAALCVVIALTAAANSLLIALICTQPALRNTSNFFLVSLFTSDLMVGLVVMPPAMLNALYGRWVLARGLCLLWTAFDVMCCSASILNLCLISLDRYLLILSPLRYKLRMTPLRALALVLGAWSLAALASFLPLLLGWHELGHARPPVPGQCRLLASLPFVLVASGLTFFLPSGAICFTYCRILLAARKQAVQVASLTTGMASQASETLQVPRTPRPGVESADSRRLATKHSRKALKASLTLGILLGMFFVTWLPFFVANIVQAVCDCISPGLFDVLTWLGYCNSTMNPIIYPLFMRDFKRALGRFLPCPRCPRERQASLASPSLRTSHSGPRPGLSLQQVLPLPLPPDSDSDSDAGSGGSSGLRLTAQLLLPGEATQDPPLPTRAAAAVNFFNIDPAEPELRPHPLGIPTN
Procedure: To evaluate in radioligand binding assays the activity of compounds of the invention, human recombinant serotonin (5-Hydroxytryptamine) 5-HT6 receptor expressed in human HeLa cells (Monsma, F. J. Jr. et al., Mol. Pharmacol. 43:320, 1993) in a modified Tris-HCl buffer (50 mM Tris-HCl, pH 7.4, 150 mM NaCl, 2 mM Ascorbic Acid, 0.001% BSA) was used. Compounds of the invention were incubated with 1.5 nM [3H]Lysergic acid diethylamide (LSD) for 120 minutes at 37° C. Non-specific binding was estimated in the presence of 5 μM Serotonin (5-HT). Receptor proteins were filtered and washed, the filters were then counted to determine [3H]LSD specifically bound. Compounds were screened at 1 μM or lower, using 1% DMSO as vehicle. Biochemical assay results are presented as the percent inhibition of specific binding in Table 4.

[3] = target: T3, human recombinant adrenergic α2A receptor (Homo sapiens, UniProt P08913); assay: Adrenergic α2A radioligand binding ([3H]MK-912); settings: for inhibition at 1 µM: read-out: Adrenergic α2A, inhibition of ligand binding (1 μM)
T3 construct: expressed in transfected cells; host or cells: insect Sf9 cells
T3 sequence (P08913 1-465): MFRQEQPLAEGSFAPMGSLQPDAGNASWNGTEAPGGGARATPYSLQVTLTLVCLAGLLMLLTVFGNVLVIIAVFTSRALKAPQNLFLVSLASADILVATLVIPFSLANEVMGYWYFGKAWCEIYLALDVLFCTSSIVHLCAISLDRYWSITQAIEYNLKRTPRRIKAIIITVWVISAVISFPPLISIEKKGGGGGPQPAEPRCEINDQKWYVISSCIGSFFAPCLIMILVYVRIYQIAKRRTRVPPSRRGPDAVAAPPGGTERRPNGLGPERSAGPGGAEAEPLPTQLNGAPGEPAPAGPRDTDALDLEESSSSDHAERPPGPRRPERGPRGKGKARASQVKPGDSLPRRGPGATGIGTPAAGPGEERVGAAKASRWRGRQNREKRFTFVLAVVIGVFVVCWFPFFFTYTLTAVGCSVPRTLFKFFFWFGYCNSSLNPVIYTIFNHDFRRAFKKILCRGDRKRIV
Procedure: To evaluate in radioligand binding assays the activity of compounds of the invention, human recombinant adrenergic α2A receptor expressed in insect Sf9 cells (Uhlen S et al. J Pharmacol Exp Ther. 271:1558, 1994) in a modified Tris-HCl buffer (50 mM Tris-HCl, pH 7.4, 12.5 mM MgCl2, 2 mM EDTA) was used. Compounds of invention were incubated with 1 nM [^3H]MK-912 for 60 minutes at 25° C. MK912 is (2S-trans)-1,3,4,5′,6,6′,7,12b-octahydro-1′,3′-dimethyl-spiro[2H-benzofuro[2,3-a]quinolizine-2,4′(1′H) -pyrimidin]-2′(3′H)-one hydrochloride Non-specific binding was estimated in the presence of 10 μM WB-4101 (2-(2,6-Dimethoxyphenoxyethyl)aminomethyl-1,4-benzodioxane hydrochloride). Receptor proteins were filtered and washed, the filters were then counted to determine [^3H]MK-912 specifically bound. Compounds were screened at 1 μM or lower, using 1% DMSO as vehicle. Biochemical assay results are presented as the percent inhibition of specific binding in Table 3.

[4] = target: T4, human recombinant dopamine D2L receptor (Homo sapiens, UniProt P14416); assay: Dopamine D2L radioligand binding ([3H]Spiperone); settings: read-out: Dopamine (1 μM) D2L, inhibition of ligand binding
T4 construct: expressed in transfected cells; host or cells: CHO cells
T4 sequence (P14416 whole entry): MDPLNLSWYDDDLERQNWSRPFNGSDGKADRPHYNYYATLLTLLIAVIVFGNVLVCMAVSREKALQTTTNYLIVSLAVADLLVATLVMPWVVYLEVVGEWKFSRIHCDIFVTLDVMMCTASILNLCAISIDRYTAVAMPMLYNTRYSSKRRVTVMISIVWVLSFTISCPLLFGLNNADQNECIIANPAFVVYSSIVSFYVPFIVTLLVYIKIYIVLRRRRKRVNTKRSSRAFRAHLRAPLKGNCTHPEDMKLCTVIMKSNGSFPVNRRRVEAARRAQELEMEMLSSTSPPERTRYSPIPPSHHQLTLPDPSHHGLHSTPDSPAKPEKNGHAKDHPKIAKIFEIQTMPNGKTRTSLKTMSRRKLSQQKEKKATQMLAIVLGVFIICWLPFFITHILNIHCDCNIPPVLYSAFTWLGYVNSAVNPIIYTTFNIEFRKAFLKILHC
Procedure: To evaluate in radioligand binding assays the activity of compounds of the invention, human recombinant dopamine D2L receptor expressed in Chinese hamster ovary (CHO) cells (Grandy, D. K. et al. Proc. Natl. Acad. Sci. USA. 86:9762, 1989; Hayes, G. et al., Mol. Endocrinol. 6:920, 1992) in a modified Tris-HCl buffer (50 mM Tris-HCl, pH 7.4, 1.4 mM Ascorbic Acid, 0.001% BSA, 150 mM NaCl) was used. Compounds of the invention were incubated with 0.16 nM [^3H]Spiperone for 120 minutes at 25° C. Non-specific binding was estimated in the presence of 10 μM Haloperidol. Receptor proteins were filtered and washed, the filters were then counted to determine [^3H]Spiperone specifically bound. Compounds were screened at 1 μM or lower, using 1% DMSO as vehicle. Biochemical assay results are presented as the percent inhibition of specific binding in Table 3.

| SMILES | inhibition at 0.01 µM ([1]; 10.0 nM, read-out: Adrenergic α2B, inhibition of ligand binding (10.0 nM)) [%] | inhibition at 0.1 µM ([1]; 0.1 μM, read-out: Adrenergic α2B, inhibition of ligand binding (0.1 μM)) [%] | inhibition at 1 µM ([1]; 1 μM) [%] | inhibition at 1 µM [2] [%] | inhibition at 0.01 µM ([3]; 10.0 nM, read-out: Adrenergic α2A, inhibition of ligand binding (10.0 nM)) [%] | inhibition at 0.1 µM ([3]; 0.1 μM, read-out: Adrenergic α2A, inhibition of ligand binding (0.1 μM)) [%] | inhibition at 1 µM ([3]; 1 μM) [%] | inhibition at 1 µM [4] [%] | Adrenergic α2B, inhibition of ligand binding (1 μM) ([1]; 1 μM) [%] | Serotonin 5-HT6, inhibition of ligand binding (1 μM) ([2]; 1 µM) [%] | Adrenergic α2A, inhibition of ligand binding (1 μM) ([3]; 1 μM) [%] |
| --- | --- | --- | --- | --- | --- | --- | --- | --- | --- | --- | --- |
| Cc1ccc2c(c1)c1c(n2CCc2ccccc2)CC2CCC1N2C (stereo not drawn) [Compound 2] | 85 | 108 | 98 | 82 | 47 | 88 | 100 |  |  |  |  |
| CN1C2CCC1c1c(n(CCC(=O)N3CCNC(=O)C3)c3ccc(Cl)cc13)C2 (stereo not drawn) [Compound 3] |  |  | -17 | 3 |  |  | 8 | -3 |  |  |  |
| CN1C2CCC1c1c(n(CCC(=O)N3CCCC3)c3ccc(Cl)cc13)C2 (stereo not drawn) [Compound 5] |  |  | 30 | 7 |  |  | 4 | 10 |  |  |  |
| CC(=O)N1CCN(C(=O)CCn2c3c(c4cc(Cl)ccc42)C2CCC(C3)N2C)CC1 (stereo not drawn) [Compound 8] |  |  | -9 | -1 |  |  | -2 | 1 |  |  |  |
| CN1C2CCC1c1c(n(CCC(=O)N3CCNCC3)c3ccc(Cl)cc13)C2 (stereo not drawn) [Compound 9] |  |  | -15 | 2 |  |  | 9 | 7 |  |  |  |
| CN1C2CCC1c1c(n(CCC(=O)N3CC[S+]([O-])CC3)c3ccc(Cl)cc13)C2 (stereo not drawn) [Compound 10] |  |  | 7 | -13 |  |  | -7 | -2 |  |  |  |
| CN1C2CCC1c1c(n(CCC(=O)N3CCS(=O)(=O)CC3)c3ccc(Cl)cc13)C2 (stereo not drawn) [Compound 11] |  |  | 1 | -16 |  |  | -10 | 2 |  |  |  |
| CN1C2CCC1c1c(n(CCC(=O)N3CCSCC3)c3ccc(Cl)cc13)C2 (stereo not drawn) [Compound 12] |  |  | 10 | -1 |  |  | 0 | -4 |  |  |  |
| CN1C2CCC1c1c(n(CCC(=O)N3CCOCC3)c3ccc(Cl)cc13)C2 (stereo not drawn) [Compound 13] |  |  | 7 | 10 |  |  | 2 | 13 |  |  |  |
| Cc1ccc2c(c1)c1c(n2CCc2ccc(C)nc2)CC2CCC1N2C (stereo not drawn) [Compound 32] |  |  | 82 | 13 |  |  | 17 | 10 |  |  |  |
| CN1C2CCC1c1c(n(CCc3ccc(Cl)cc3)c3ccc(F)cc13)C2 (stereo not drawn) [Compound 33] |  |  | 100 | 14 |  |  | 69 | 17 |  |  |  |
| CN1C2CCC1c1c(n(CCc3ccc(C(F)(F)F)nc3)c3ccc(Cl)cc13)C2 (stereo not drawn) [Compound 34] |  |  | 103 | 20 |  |  | 42 | -0.875 | 100.0 | 28.0 | 39.0 |
| CN1C2CCC1c1c(n(CCc3ccc(F)cc3)c3ccc(F)cc13)C2 (stereo not drawn) [Compound 35] |  |  | 110 | 70 |  |  | 93 | 67 |  |  |  |
| CN1C2CCC1c1c(n(CCCc3ccc(C(F)(F)F)nc3)c3ccc(Cl)cc13)C2 (stereo not drawn) [Compound 37] |  |  | 51 | 22 |  |  | 10 | 2 |  |  |  |
| Cc1ccc(CCCn2c3c(c4cc(Cl)ccc42)C2CCC(C3)N2C)cn1 (stereo not drawn) [Compound 38] |  |  | 76 | 17 |  |  | 33 | -5 |  |  |  |
| CN1C2CCC1c1c(n(CCCc3ccc(Cl)cc3)c3ccc(Cl)cc13)C2 (stereo not drawn) [Compound 39] |  |  | 54 | 24 |  |  | 68 | 2 |  |  |  |
| Cc1ccc(C(O)Cn2c3c(c4cc(Cl)ccc42)C2CCC(C3)N2C)cn1 (stereo not drawn) [Compound 52] |  |  | 85 | 16 |  |  | 46 | 10 |  |  |  |
| Cc1ccc2c(c1)c1c(n2CC(C)(O)c2ccc(Cl)cc2)CC2CCC1N2C (stereo not drawn) [Compound 54] |  |  | 94 | 26 |  |  | 75 | 14 |  |  |  |
| Cc1ccc2c(c1)c1c(n2CCc2ccccc2)CC2CCCC1N2C (stereo not drawn) [Compound 56] |  |  | 100 | 30 |  |  | 92 |  |  |  |  |
| CN1C2CCC1c1c(n(CCc3ccc(F)cc3)c3ccc(Cl)cc13)C2 (stereo not drawn) [Compound 57] |  |  | 98 | 46 |  |  | 96 |  |  |  |  |
| CN1C2CCC1c1c(n(CCc3ccc(Cl)cc3)c3ccc(Cl)cc13)C2 (stereo not drawn) [Compound 58] |  |  | 99 | 25 |  |  | 98 |  |  |  |  |
| CN1C2CCC1c1c(n(CC(=O)N3CCOCC3)c3ccc(Cl)cc13)C2 (stereo not drawn) [Compound 59, 2-(2-chloro-11-methyl-5,6,7,8,9,10-Hexahydro-7,10-iminocyclohept[b]indol-5-yl)-1-morpholinoethanone] |  |  | 20 | 0 |  |  | 17 | 6 |  |  |  |
| CN1C2CCC1c1c(n(CC(=O)N3CCCC3)c3ccc(Cl)cc13)C2 (stereo not drawn) [Compound 60] |  |  | 5 | 9 |  |  | 2 | 0 |  |  |  |
| Cc1ccc(CCn2c3c(c4cc(Cl)ccc42)C2CCC(C3)N2C)cc1 (stereo not drawn) [Compound 61] |  |  | 96 | 41 |  |  | 97 | 44 |  |  |  |
